Values of other authors as cited in patent US20110274652A1, “Methods for Treating Hepatitis C Virus Infection” (VERTEX PHARMACEUTICALS INCORPORATED, priority 2008, published 2011).

Tested on: Hepatitis C virus
Details: interferon alfa monotherapy, chronic hepatitis C

interferon alfa
cases with long term remission: ~25%
